Source: ChEMBL document CHEMBL1201862, “PubChem BioAssay data set” (2004)
Calls of active or inactive are those of the source.

Legend:
[1] = target: Protein Tat (Human immunodeficiency virus type 1 group M subtype B (isolate HXB2)(HIV-1), UniProt P04608); format: functional;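 also: tat binding to TAR RNA read out by fluorescence polarization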
[2] = target: T1, Oxysterols receptor LXR-beta (Homo sapiens, UniProt P55055); assay: LXR agonists, Gal4 luciferase reporter, dose response, counter-screen for ssDAF-12 agonist project, cell-based, luminescence, HEK293, S. stercoralis campaign (AID 720737); format: functional; settings: read-out: IC50 (the source's name)
T1 sequence (P55055 whole entry): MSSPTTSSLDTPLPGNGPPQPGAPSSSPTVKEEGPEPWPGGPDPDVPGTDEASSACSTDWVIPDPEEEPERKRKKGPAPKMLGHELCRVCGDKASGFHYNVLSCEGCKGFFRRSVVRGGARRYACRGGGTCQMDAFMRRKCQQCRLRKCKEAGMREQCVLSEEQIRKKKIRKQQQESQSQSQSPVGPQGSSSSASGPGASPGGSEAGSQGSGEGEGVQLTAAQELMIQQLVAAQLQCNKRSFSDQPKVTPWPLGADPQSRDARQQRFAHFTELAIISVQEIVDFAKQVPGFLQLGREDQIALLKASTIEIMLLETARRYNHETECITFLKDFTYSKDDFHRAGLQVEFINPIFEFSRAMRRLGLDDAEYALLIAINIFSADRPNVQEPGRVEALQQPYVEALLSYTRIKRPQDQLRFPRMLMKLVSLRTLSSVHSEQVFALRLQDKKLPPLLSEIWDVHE

[3] = target: Luciferin 4-monooxygenase (Photinus pyralis, UniProt P08659); assay: Counter Screen for Luciferase-based Assay Positives. [Related pubchem assays: 620, 618, 411 ]
[4] = target: T1, Oxysterols receptor LXR-beta; format: functional, cell-based
[5] = test system: HT-1080; assay: HT1080 cell viability loss – fluorescence readout (AID 620); format: functional, cell-based; settings: Homo sapiens
[6] = Luminescence-based cell-based high throughput dose response assay to identify activators of the DAF-12 from the parasite S. stercoralis (ssDAF-12).; format: functional
[7] = HGIII-sPLA2 enzyme inhibition potency – biochemical, QFRET, IC50, dose response (AID 743457);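 also: green fluorescence rise as the enzyme cleaves BODIPY PC-A2 in liposomes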
[8] = viability loss in HepG2 hepatoma cells – cell-based, ATP luminescence, cherry-pick, activator set 2, cytotoxicity control, dose response (AID 1053143); format: functional
[9] = viability of uninfected HEp-2 cells – cell-based, HTS, cytotoxicity control for RSV inhibitor project, dose response (AID 2410); format: functional; settings: human respiratory syncytial virus
[10] = target: SWI/SNF-related matrix-associated actin-dependent regulator of chromatin subfamily A member 2 (Homo sapiens, UniProt P51531); assay: Luminescence-based cell-based high throughput dose response assay to identify activators of the function of SWI/SNF related, matrix associated, actin dependent regulator of chromatin, subfamily a, member 2 (SMARCA2, BRM).; format: functional
[11] = Counterscreen for activators of the function of SWI/SNF related, matrix associated, actin dependent regulator of chromatin, subfamily a, member 2 (SMARCA2, BRM): Luminescence-based cell-based high throughput dose response assay to identify non-selective compounds using the VP16 reporter assay.; format: functional
[12] = HEK-293T viability loss after treatment – luminescence, T-cell screen hits, cytotoxicity control for TCR NF-kB inhibitor project, dose response (AID 489026); format: functional, cell-based;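 also: cells exposed to compound about 14 hours before the viability readout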
[13] = target: Photoreceptor-specific nuclear receptor (Homo sapiens, UniProt Q9Y5X4); assay: ligands suppressing NR2E3 nuclear receptor activity – biochemical, TR-FRET, dose response (AID 463256); format: functional
[14] = target: Peroxisome proliferator-activated receptor gamma/Nuclear receptor corepressor 2 (Homo sapiens, UniProt P37231+Q9Y618); assay: Counterscreen for NR2E3 inverse agonists: TR-FRET-based biochemical high throughput dose response assay to identify inverse agonists of the interaction between peroxisome proliferator-activated receptor gamma (PPARg) and nuclear receptor co-repressor 2 (NCOR2).; format: functional
[15] = target: Disintegrin and metalloproteinase domain-containing protein 17 (Homo sapiens, UniProt P78536); assay: exosite inhibitors of ADAM17, dose response, biochemical (AID 743260)
[16] = target: Fatty acid synthase (Homo sapiens, UniProt P49327); assay: inhibition of human FAS-TE enzyme activity – biochemical, kinetic fluorescence intensity, dose response (AID 624326); format: functional;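 also: rate of fluorescence rise from hydrolysis of a fluorogenic O-methyl fluorescein ester substrate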
[17] = inhibition of ADAM10 peptide cleavage – biochemical, FRET peptide substrate, recombinant human ADAM10, selectivity assay for ADAM17 exosite inhibitor project, dose response (AID 743259);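 also: ADAM10 enzyme cleaving a FRET peptide substrate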
[18] = target: T2, Methionyl-tRNA synthetase, putative (Trypanosoma brucei brucei, UniProt Q38C91); format: functional, Trypanosoma brucei brucei strain 927/4 GUTat10.1
T2 sequence (Q38C91 whole entry): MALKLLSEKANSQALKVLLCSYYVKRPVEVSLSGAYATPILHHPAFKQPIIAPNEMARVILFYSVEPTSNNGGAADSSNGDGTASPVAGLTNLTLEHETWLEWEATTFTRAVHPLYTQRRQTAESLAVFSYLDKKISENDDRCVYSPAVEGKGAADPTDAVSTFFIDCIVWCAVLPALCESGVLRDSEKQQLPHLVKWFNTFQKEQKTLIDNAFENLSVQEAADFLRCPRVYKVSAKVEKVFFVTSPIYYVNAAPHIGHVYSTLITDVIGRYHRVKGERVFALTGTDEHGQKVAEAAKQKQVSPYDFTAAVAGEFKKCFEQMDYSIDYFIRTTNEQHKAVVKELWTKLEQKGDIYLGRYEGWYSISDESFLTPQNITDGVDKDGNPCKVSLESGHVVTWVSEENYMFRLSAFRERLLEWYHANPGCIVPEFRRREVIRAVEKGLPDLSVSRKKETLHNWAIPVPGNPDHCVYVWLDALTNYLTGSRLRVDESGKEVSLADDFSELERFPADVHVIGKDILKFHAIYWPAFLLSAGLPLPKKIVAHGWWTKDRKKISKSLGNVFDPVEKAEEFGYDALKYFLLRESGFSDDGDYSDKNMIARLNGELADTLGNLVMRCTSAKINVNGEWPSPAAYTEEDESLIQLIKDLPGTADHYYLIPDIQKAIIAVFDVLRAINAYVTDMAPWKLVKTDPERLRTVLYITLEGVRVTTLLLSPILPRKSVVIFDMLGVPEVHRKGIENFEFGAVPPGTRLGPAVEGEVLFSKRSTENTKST

[19] = target: T2, Methionyl-tRNA synthetase, putative; format: functional, Trypanosoma brucei brucei strain 927/4 GUTat10.1; remark: listed apart in the source
[20] = Counterscreen for inhibitors of Trypanosoma brucei methionyl tRNA synthetase (MetRS): Luminescence-based cell-based high throughput dose response assay to identify compounds that are cytotoxic to Jurkat human T lymphocyte cells.; format: functional
[21] = microbe, parasite or virus in culture; format: functional; settings: Mycobacterium tuberculosis
[22] = cells; format: functional
[23] = target: T3, Histone-lysine N-methyltransferase NSD2 (Homo sapiens, UniProt O96028); format: biochemical
T3 sequence (O96028 whole entry): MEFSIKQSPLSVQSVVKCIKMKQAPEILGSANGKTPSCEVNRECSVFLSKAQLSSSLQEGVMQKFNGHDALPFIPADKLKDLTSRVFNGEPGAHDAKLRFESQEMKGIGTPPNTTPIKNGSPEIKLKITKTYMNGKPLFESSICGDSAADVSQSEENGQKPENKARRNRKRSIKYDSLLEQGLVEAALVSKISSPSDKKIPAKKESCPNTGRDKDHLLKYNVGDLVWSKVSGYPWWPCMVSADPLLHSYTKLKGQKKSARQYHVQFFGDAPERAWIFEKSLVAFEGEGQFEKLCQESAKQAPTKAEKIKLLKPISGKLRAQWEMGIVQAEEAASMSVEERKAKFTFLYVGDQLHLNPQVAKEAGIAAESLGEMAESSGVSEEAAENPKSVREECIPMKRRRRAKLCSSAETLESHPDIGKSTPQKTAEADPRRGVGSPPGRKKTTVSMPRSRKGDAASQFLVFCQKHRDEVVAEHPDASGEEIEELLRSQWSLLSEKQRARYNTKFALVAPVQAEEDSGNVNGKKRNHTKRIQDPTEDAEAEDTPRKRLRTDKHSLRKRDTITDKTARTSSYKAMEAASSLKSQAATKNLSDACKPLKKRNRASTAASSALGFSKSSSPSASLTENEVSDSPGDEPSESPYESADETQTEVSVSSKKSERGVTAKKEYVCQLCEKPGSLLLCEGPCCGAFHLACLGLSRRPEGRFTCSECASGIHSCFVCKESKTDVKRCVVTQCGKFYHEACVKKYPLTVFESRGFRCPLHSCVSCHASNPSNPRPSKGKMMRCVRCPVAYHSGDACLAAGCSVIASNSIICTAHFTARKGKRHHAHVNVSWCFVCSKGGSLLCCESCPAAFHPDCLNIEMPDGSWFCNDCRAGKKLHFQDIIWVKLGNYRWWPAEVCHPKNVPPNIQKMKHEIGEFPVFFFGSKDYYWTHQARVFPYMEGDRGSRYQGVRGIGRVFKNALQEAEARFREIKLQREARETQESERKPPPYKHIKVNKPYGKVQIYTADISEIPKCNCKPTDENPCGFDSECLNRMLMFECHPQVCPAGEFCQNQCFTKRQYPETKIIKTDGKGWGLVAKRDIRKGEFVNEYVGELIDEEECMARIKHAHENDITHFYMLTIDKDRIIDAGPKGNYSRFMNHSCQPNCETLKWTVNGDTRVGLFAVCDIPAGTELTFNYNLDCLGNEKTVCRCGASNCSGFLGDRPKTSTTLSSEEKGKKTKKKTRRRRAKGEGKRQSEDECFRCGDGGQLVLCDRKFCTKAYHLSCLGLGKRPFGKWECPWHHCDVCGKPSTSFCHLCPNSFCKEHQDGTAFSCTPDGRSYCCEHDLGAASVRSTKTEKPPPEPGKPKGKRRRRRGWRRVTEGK

[24] = growth inhibition of PfATP4-mutant resistant parasites – NITD609-resistant line, SYBR Green, dry powder, dose response (AID 1159571); format: functional, cell-based;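 also: parasites synchronized at ring stage by sorbitol before testing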
[25] = growth inhibition of yeast DHODH-expressing 3D7 parasites – SYBR Green, dry powder samples, dose response (AID 1159570); format: functional, cell-based;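 also: parasite growth measured after 72 hours of compound exposure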
[26] = P. falciparum Dd2 growth inhibitors, dose response, SYBR Green, cherry-picked samples (AID 1159567); format: functional, cell-based
[27] = toxicity to human HepG2 hepatoma cells – cell-based, plate reader, dry powder samples, cytotoxicity control, dose response (AID 1159569); format: functional;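 also: inhibitor potency with signal falling toward the positive control level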
[28] = toxicity to human hepatoma HepG2 cells – cell-based, cherry-picked samples, cytotoxicity control, dose response (AID 1159577); format: functional
[29] = Dd2 malaria parasite growth inhibition potency – SYBR Green, dry powder samples, dose response (AID 1159566); format: functional, cell-based;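 also: potency for growth inhibition with lower SYBR green DNA signal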
[30] = target: 5-hydroxytryptamine receptor 2A (Mus musculus, UniProt P35363); format: functional, cell-based;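 also: CHO-K1 cells with tagged receptor and beta-arrestin; agonist potency measured as compound-induced activation of the receptor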
Chain of 5-hydroxytryptamine receptor 2A (P35363 whole entry): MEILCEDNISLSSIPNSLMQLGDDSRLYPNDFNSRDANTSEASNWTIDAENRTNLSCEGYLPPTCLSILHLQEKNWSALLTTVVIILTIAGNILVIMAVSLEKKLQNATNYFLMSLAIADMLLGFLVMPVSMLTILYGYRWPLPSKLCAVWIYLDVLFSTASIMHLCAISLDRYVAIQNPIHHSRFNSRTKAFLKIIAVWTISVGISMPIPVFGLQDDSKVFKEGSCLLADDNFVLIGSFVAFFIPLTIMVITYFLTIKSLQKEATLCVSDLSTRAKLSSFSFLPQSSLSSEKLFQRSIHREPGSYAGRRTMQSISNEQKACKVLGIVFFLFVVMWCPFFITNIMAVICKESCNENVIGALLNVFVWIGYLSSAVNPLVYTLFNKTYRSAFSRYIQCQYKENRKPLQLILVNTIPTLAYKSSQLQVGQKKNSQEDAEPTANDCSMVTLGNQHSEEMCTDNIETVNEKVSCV

Chain of SWI/SNF-related matrix-associated actin-dependent regulator of chromatin subfamily A member 2 (P51531 whole entry): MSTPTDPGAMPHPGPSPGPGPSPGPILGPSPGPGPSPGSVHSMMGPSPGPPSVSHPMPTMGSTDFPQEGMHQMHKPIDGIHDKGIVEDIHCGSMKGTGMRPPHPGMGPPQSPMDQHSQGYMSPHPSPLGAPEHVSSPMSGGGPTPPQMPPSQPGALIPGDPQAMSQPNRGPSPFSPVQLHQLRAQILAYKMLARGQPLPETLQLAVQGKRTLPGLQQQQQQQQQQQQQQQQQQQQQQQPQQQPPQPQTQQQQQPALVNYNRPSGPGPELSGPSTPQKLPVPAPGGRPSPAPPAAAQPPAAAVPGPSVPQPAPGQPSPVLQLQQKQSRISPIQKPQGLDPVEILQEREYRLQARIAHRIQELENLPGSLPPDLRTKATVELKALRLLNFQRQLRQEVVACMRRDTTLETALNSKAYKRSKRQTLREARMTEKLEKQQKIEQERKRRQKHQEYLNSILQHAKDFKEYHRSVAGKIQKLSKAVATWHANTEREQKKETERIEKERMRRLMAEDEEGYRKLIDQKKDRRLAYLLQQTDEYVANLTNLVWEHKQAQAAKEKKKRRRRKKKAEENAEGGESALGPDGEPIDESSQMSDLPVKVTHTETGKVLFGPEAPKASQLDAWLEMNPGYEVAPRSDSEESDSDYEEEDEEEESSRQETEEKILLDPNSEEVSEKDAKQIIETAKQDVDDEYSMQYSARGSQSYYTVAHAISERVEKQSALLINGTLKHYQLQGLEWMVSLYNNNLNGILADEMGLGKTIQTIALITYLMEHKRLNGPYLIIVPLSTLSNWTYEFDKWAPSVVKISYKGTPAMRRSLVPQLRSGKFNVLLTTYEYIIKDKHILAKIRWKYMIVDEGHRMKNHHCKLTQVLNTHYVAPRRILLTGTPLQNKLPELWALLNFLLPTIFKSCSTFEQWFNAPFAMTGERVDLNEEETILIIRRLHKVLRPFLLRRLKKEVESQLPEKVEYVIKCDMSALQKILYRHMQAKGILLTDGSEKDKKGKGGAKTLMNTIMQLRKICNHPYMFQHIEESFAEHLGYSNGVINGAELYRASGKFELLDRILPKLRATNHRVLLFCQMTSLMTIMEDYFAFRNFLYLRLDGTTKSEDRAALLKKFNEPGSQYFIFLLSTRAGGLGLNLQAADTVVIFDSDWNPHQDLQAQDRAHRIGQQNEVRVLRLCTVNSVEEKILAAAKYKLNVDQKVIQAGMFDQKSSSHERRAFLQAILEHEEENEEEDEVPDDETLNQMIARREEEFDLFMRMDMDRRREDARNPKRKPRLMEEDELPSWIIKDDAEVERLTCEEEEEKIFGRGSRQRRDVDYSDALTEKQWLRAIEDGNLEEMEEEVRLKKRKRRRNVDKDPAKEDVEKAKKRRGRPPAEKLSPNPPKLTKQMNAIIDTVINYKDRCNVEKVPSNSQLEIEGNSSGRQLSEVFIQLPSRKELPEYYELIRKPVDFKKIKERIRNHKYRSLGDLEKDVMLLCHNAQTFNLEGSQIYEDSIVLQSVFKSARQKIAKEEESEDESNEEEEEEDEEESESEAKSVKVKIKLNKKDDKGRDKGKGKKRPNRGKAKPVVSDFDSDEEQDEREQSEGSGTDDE
Chain of Peroxisome proliferator-activated receptor gamma/Nuclear receptor corepressor 2 (P37231 whole entry, the tested form may be a part): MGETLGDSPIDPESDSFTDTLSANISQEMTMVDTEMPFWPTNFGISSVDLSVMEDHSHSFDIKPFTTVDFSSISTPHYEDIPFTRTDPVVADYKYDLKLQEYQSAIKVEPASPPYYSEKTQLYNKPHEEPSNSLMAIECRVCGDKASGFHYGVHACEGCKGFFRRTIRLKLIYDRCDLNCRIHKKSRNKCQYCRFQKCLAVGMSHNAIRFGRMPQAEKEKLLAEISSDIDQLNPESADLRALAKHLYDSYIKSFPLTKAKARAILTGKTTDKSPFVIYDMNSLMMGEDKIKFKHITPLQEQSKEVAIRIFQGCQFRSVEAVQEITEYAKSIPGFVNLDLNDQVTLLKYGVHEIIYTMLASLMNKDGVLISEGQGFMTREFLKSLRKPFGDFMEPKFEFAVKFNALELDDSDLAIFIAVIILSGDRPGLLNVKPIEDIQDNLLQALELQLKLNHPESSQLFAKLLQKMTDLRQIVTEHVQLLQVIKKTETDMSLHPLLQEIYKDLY
Chain of Peroxisome proliferator-activated receptor gamma/Nuclear receptor corepressor 2 (Q9Y618 whole entry, the tested form may be a part): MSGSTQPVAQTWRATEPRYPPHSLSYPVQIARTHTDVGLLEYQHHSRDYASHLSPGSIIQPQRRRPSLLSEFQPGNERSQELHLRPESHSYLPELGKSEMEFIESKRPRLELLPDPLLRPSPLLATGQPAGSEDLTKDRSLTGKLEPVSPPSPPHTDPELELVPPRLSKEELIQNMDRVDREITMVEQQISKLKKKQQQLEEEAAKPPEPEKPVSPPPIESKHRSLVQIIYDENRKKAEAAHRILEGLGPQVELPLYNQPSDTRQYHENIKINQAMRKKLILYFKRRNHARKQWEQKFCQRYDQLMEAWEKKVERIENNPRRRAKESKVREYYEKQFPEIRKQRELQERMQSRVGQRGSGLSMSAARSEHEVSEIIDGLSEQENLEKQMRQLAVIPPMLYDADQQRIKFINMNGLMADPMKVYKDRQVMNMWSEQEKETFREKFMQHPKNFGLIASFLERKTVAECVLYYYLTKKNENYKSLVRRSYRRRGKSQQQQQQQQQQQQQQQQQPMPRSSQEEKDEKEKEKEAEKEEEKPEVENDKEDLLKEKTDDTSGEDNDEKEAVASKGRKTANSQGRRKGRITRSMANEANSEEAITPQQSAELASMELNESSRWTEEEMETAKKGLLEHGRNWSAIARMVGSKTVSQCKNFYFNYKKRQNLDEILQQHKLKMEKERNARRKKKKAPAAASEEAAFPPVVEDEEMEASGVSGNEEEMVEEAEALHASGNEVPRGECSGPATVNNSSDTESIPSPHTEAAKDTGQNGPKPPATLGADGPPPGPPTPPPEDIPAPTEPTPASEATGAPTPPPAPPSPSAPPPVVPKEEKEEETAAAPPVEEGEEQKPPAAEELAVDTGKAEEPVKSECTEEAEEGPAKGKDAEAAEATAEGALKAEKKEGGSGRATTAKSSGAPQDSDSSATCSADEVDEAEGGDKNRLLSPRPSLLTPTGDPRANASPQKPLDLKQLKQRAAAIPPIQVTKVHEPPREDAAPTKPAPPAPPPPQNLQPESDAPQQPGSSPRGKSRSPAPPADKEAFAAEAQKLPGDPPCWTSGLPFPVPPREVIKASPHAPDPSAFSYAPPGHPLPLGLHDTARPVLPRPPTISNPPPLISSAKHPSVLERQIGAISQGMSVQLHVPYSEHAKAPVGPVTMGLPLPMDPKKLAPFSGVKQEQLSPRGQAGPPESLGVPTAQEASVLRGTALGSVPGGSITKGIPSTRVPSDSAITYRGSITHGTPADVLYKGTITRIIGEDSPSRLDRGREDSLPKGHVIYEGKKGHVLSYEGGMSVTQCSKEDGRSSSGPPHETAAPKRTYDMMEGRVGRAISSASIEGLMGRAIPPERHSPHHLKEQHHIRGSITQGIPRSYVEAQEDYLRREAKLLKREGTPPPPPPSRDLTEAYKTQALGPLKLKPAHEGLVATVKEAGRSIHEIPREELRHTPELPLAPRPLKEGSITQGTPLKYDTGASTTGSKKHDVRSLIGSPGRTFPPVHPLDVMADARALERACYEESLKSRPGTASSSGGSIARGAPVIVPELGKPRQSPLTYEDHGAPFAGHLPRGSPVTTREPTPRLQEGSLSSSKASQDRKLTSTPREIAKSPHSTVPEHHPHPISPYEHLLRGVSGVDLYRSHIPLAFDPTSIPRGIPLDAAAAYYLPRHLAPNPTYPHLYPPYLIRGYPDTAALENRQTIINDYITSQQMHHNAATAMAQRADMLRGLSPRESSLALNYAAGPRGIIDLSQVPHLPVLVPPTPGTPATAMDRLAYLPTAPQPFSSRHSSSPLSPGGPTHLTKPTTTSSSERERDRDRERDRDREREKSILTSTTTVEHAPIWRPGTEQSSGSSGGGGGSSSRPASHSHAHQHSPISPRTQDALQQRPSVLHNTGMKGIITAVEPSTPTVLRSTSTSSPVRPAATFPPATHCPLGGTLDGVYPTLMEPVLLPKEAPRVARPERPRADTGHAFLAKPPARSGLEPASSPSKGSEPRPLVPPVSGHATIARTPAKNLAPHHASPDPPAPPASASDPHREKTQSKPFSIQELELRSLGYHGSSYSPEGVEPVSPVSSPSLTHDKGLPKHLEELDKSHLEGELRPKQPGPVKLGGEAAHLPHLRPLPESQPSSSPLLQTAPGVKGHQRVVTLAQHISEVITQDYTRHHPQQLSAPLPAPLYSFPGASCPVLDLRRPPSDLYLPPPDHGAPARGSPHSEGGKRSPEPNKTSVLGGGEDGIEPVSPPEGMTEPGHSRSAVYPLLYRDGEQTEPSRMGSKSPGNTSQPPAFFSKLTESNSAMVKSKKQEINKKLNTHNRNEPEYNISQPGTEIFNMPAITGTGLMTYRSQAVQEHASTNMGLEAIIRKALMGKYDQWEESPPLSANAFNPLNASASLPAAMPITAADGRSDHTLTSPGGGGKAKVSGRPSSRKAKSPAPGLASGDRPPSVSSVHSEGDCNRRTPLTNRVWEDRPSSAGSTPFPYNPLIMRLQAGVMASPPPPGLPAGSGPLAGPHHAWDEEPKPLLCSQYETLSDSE

## CCCOC(=O)Nc1sc2c(c1C(=O)OCC)CCC2
[1]
  IC50: > 100 µM (active)

## CCc1ccc2oc(-c3cccc(N)c3)nc2c1
[2]
  EC50: > 67.5 µM (inactive)
[3]
  EC50: 370 nM (active)
[4]
  EC50: > 67.6 µM (inactive)
[5]
  EC50: > 50 µM (not active)
[6]
  IC50: > 67.5 µM (inactive)

## CN1/C(=C\C(=O)Nc2ccc(F)cc2)C(C)(C)c2ccccc21
[7]
  IC50: > 122 µM (inactive)

## Cc1occc1C(=O)Nc1ccc2c(c1)OCCO2
[8]
  AC50: > 52 µM (inactive)

## c1ccc2c(c1)nnn2-c1ncnc2sccc12
[9]
  CC50: 46.8 µM (active)
[10]
  EC50: > 91.2 µM (inactive)
[11]
  EC50: > 91.2 µM (inactive)

## CC1(C)Cc2c(sc(NC(=O)COc3cccc4ccccc34)c2C#N)C(C)(C)N1
[12]
  IC50: > 80 µM (inactive)
[13]
  IC50: 8.84 µM (active)
[10]
  EC50: > 10.1 µM (inactive)
[11]
  EC50: > 91.2 µM (inactive)
[14]
  IC50: 8.33 µM (active)

## Cc1ccc(NC(=O)NNC(=O)Cn2nc(-c3ccccc3)c(-c3ccccc3)c(C#N)c2=O)cc1
[15]
  IC50: > 69.5 µM (inactive)
[16]
  IC50: 4.64 µM (active)
[17]
  IC50: > 69.5 µM (inactive)

## O=C(CCCNC(=O)c1ccc(Cl)cc1)Nc1ccc(Br)cc1
[18]
  IC50: 119 µM (inactive)
[19]
  IC50: 7.11 µM (active)
[20]
  IC50: 83.4 µM (inactive)

## Oc1cc(NCc2cccnc2)ccc1-c1nc2ccccc2o1
[21]
  CC50: > 40 µM (active)
[8]
  AC50: 26 µM (active)
[22]
  IC50: 14.1 µM (active)

## O=C(NNC(=O)c1ccc(-n2cncn2)c([N+](=O)[O-])c1)c1ccccc1
[18]
  IC50: 32.3 µM (inactive)
[19]
  IC50: 11.9 µM (inactive)
[20]
  IC50: 83.3 µM (inactive)

## Cc1ccc(C(=O)NC(=S)c2c(C)cc3ccccn23)cc1
[23]
  AC50: 11 µM (active)
[2]
  EC50: > 67.5 µM (inactive)
[6]
  IC50: > 67.5 µM (inactive)

## COc1ccccc1C#Cc1ccc([C@@H]2[C@@H](C#N)N(C(=O)C3CCCC3)[C@H]2CO)cc1
[24]
  AC50: 1.39 µM (active)
[25]
  AC50: 1.92 µM (active)
[26]
  AC50: 2.9 µM (active)
[27]
  AC50: 25.2 µM (active)
[28]
  AC50: > 39 µM (inactive)
[29]
  AC50: 1.22 µM (active)

## NC[C@H](O)c1ccc(O)c(O)c1 [NOREPINEPHRINE BITARTRATE]
[30]
  EC50: 806 nM (active)
